In patent US20030083374A1, “NAALADase inhibitors useful as pharmaceutical compounds and compositions” (priority 1998, published 2003):
pEC50: −log10 of the molar value.

Columns and labels:
[1] = Example 14: each of the Examples and in vitro and in vivo assays described above; conditions: each of their respective assays and Examples
rat MCAO model of stroke = test: in vivo assay on brain injury following MCAO; parameters: species or system Sprague-Dawley rats; conditions: for % Protect: TABLE IV(b), 120 minutes post MCAO
Protocol: The control group received Hepes buffered saline.
Four drug treated groups received Compound 1. For each rat, the treatment was initiated at 60 minutes post middle cerebral artery occlusion (MCAO) by an IV bolus injection which was immediately followed by IV infusion for 4 hours at rate of 0.5 ml/hr. Group 1 (n=9) received a dose of 100 mg/kg IV bolus followed by 20 mg/kg/hr IV infusion for 4 hours. Group 2 (n=11) received a dose of 30 mg/kg IV bolus followed by 6 mg/kg/hr IV infusion for 4 hours. Group 3 (n=9) received a dose of 10 mg/kg IV bolus followed by 2 mg/kg/hr IV infusion for 4 hours. Group 3 rats were also treated at 120 minutes, 180 minutes and 360 minutes post-occlusion. Group 4 (n=8) received a dose of 3 mg/kg IV bolus followed by […] IV infusion for 4 hours.
Two additional drug treated groups received 2-(3-sulfanylpropyl)pentanedioic acid. For each rat, the treatment was initiated at 120 minutes post middle cerebral artery occlusion (MCAO) by an IV bolus injection which was immediately followed by IV infusion for 4 hours at rate of 0.5 ml/hr. Group 5 received a dose of 30 mg/kg IV bolus followed by 6 mg/kg/hr IV infusion for 4 hours. Group 6 received a dose of 10 mg/kg IV bolus followed by 2 mg/kg/hr IV infusion.
Twenty two hours following the reperfusion, the rats were euthanized and their brains were removed. Seven coronal sections (2 mm thick) were taken and stained with 1% solution of 2,3,5-triphenyl-tetraxolium chloride (TTC) for 20 minutes and then fixed in 10% formalin. The anterior and posterior surface of the most rostral brain section and the posterior surface of each of the remaining 6 sections were imaged. The quantification of infarct size of each brain was obtained using a computer aided-digital imaging analysis system (LOATS). The brain regions completely lacking TTC-staining were characterized as representative of infarcted tissue. The total infarct volume for each rat was calculated by numeric integration of the respective sequential brain areas.
Male Sprague-Dawley rats (260-320 g) were used. They were individually housed and allowed free access to food and water. Two days prior to the experiment, they were given restricted food if necessary to maintain the body weight Each rat received two surgeries: femoral vein cannulation for IV infusion and MCAO. During surgeries, the rat was anesthetized with 1.5% halothane delivered in oxygen via an inhalation mask. The body temperature was monitored and regulated at normothermic level using a homeothermic heating system. First, a catheter was inserted into the left femoral vein. Thirty minutes later, the rat was reanesthetized for MCAO surgery. The MCAO was achieved using the endovascular suture method described by Long et al., Stroke, Vol. 20, pp. 84-91 (1989). Specifically, the right external carotid artery (ECA) was exposed, coagulated and transected. A 3-0 monofilament nylon suture with a blunted tip and a coat of 0.05% Poly-1-Lysine was introduced into the proximal stump of the ECA via an arteriotomy. It was advanced 22 mm from the carotid bifurcation until it lodged in the proximal region of the anterior cerebral artery, thereby occluding the origin of the MCA. The rats were allowed to wake up; 2 hours later, the rats were reanesthetized for reperfusion, during which the nylon suture was retracted to the stump of the ECA allowing blood recirculation to the MCA.

cortical cell cultures = test: in vitro assay of NAALADase inhibitors on ischemia in cortical cell cultures; assay type: cell-based; conditions: concentration required to cause a 50% reduction in glutamate toxicity following an ischemic insult (potassium cyanide and 2-deoxyglucose)
Source text: Some results are set forth in U.S. Pat. Nos. 5,672,592, 5,795,877, 5,863,536, 5,880,112 and 5,902,817, allowed U.S. patent application Ser. Nos. 08/825,997, 08/833,628, 08/842,360 and 08/899,319 for which the issue fees have been paid, the entire contents of which patents and applications are herein incorporated by reference. Other results are provided below in TABLE III.

## O=C(O)CCC(CCCS)C(=O)O (centres unmarked) [2-(3-sulfanylpropyl)pentanedioic acid]
[1]
  in vitro or in vivo activity: exhibit in vitro or in vivo activity
Rat MCAO model of stroke; 30 mg/kg IV bolus + 6 mg/kg/hr IV infusion 4 hours, 120 minutes post-occlusion
  infarct size vs. vehicle treated rats: significantly smaller infarct size
Rat MCAO model of stroke; dose 10 mg/kg
  % Protect: 21%
Rat MCAO model of stroke; dose 30 mg/kg
  % Protect: 52%
Cortical cell cultures
  pEC50: 7.89
